Experimental data taken from ChEMBL document CHEMBL4680085 (J Med Chem, 2016).
Activity calls are given as the source filed them. The rule behind the calls is not given here.

Legend:
[1] = in vitro; conditions: human, HepG2 cells
Description: Toxicity in human HepG2 cells assessed as cell viability at 300 uM by MTT assay relative to control

[2] = target: T1, Nuclear factor erythroid 2-related factor 2 (Homo sapiens) (UniProt Q16236); assay: Activation of NRF2 in human MCF-7/AREc32 cells at 3 uM incubated for 24 hrs by luciferase reporter gene assay; format: cell-based; conditions: MCF7, filed as activator
T1 sequence (whole entry): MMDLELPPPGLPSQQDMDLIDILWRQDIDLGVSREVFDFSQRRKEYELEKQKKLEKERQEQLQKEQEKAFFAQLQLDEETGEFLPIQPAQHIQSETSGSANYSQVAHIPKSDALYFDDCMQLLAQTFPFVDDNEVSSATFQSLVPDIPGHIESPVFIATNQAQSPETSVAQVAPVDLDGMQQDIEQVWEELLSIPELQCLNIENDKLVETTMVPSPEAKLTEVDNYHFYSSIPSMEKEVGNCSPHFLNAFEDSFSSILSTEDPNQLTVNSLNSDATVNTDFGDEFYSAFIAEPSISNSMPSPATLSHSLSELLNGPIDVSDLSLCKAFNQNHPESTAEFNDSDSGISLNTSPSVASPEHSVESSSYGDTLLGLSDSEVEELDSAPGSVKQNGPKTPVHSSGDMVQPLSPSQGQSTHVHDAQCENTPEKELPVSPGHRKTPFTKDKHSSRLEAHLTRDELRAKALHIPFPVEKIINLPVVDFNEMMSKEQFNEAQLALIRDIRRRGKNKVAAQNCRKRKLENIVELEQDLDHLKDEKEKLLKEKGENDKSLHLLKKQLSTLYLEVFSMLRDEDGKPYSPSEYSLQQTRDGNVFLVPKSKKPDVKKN

[3] = tested on: SH-SY5Y; assay: Neuroprotection in human SH-SY5Y cells assessed as reduction in Rotenone/Oligomycin A -induced cell death at >0.01 uM incubated for 24 hrs by MTT assay; format: functional, cell-based; conditions: dose microM >0.01, time […]
[4] = tested on: SH-SY5Y; assay: Neuroprotection in human SH-SY5Y cells assessed as reduction in Rotenone/Oligomycin A -induced cell death at 1 uM incubated for 24 hrs by MTT assay; format: functional; set-up: scale not given: the % may be the effect or the level left
[5] = tested on: SH-SY5Y; assay: Neuroprotection in human SH-SY5Y cells assessed as reduction in beta-amyloid peptide (1-42)-induced cell death at 3 uM incubated for 24 hrs by MTT assay; format: functional; set-up: scale not given: the % may be the effect or the level left
[6] = tested on: SH-SY5Y; assay: Neuroprotection in human SH-SY5Y cells assessed as reduction in beta-amyloid peptide (1-40)-induced cell death at >0.01 uM incubated for 24 hrs by MTT assay; format: functional, cell-based; conditions: dose microM >0.01, time […]
[7] = tested on: SH-SY5Y; assay: Neuroprotection in human SH-SY5Y cells assessed as reduction in H2O2-induced cell death at 3 uM incubated for 24 hrs by MTT assay; format: functional; set-up: scale not given: the % may be the effect or the level left
[8] = tested on: SH-SY5Y; assay: Neuroprotection in human SH-SY5Y cells assessed as reduction in beta-amyloid peptide (1-40)-induced cell death at 1 uM incubated for 24 hrs by MTT assay; format: functional; set-up: scale not given: the % may be the effect or the level left
[9] = tested on: SH-SY5Y; assay: Neuroprotection in human SH-SY5Y cells assessed as reduction in beta-amyloid peptide (1-40)-induced cell death at 3 uM incubated for 24 hrs by MTT assay; format: functional; set-up: scale not given: the % may be the effect or the level left
[10] = in vitro; conditions: human, HepG2 cells; remark: listed apart in the source
Description: Toxicity in human HepG2 cells assessed as cell viability at 1000 uM by MTT assay relative to control

[11] = tested on: SH-SY5Y; assay: Neuroprotection in human SH-SY5Y cells assessed as reduction in beta-amyloid peptide (1-42)-induced cell death at 0.01 uM incubated for 24 hrs by MTT assay; format: functional; set-up: scale not given: the % may be the effect or the level left
[12] = tested on: SH-SY5Y; assay: Neuroprotection in human SH-SY5Y cells assessed as reduction in H2O2-induced cell death at 0.01 uM incubated for 24 hrs by MTT assay; format: functional; set-up: scale not given: the % may be the effect or the level left
[13] = tested on: SH-SY5Y; assay: Neuroprotection in human SH-SY5Y cells assessed as reduction in Rotenone/Oligomycin A -induced cell death at 0.01 uM incubated for 24 hrs by MTT assay; format: functional; set-up: scale not given: the % may be the effect or the level left
[14] = target: T1, Nuclear factor erythroid 2-related factor 2 (Homo sapiens); assay: Activation of NRF2 in human MCF-7/AREc32 cells at 10 to 30 uM incubated for 24 hrs by luciferase reporter gene assay; format: cell-based; conditions: MCF7, filed as activator, dose 10-30 µM
[15] = target: T1, Nuclear factor erythroid 2-related factor 2 (Homo sapiens); assay: Activation of NRF2 in human MCF-7/AREc32 cells assessed as concentration required to double Nrf2 transcriptional pathway by measuring specific luciferase reporter activity incubated for 24 hrs by luciferase reporter gene assay; format: cell-based
[16] = tested on: SH-SY5Y; assay: Neuroprotection in human SH-SY5Y cells assessed as reduction in H2O2-induced cell death at 1 uM incubated for 24 hrs by MTT assay; format: functional; set-up: scale not given: the % may be the effect or the level left
[17] = tested on: SH-SY5Y; assay: Neuroprotection in human SH-SY5Y cells assessed as reduction in beta-amyloid peptide (1-42)-induced cell death at 1 uM incubated for 24 hrs by MTT assay; format: functional; set-up: scale not given: the % may be the effect or the level left
[18] = in vitro; conditions: human, HepG2 cells; remark: listed apart in the source
Description: Toxicity in human HepG2 cells assessed as cell viability at 100 uM by MTT assay relative to control

[19] = tested on: SH-SY5Y; assay: Neuroprotection in human SH-SY5Y cells assessed as reduction in Rotenone/Oligomycin A -induced cell death at 3 uM incubated for 24 hrs by MTT assay; format: functional; set-up: scale not given: the % may be the effect or the level left
[20] = tested on: SH-SY5Y; assay: Neuroprotection in human SH-SY5Y cells assessed as reduction in beta-amyloid peptide (1-42)-induced cell death at >0.01 uM incubated for 24 hrs by MTT assay; format: functional, cell-based; conditions: dose microM >0.01, time […]
[21] = tested on: SH-SY5Y; assay: Neuroprotection in human SH-SY5Y cells assessed as reduction in beta-amyloid peptide (1-40)-induced cell death at 0.01 uM incubated for 24 hrs by MTT assay; format: functional; set-up: scale not given: the % may be the effect or the level left
[22] = tested on: SH-SY5Y; assay: Neuroprotection in human SH-SY5Y cells assessed as reduction in H2O2-induced cell death at >0.01 uM incubated for 24 hrs by MTT assay; format: functional, cell-based; conditions: dose microM >0.01, time […]
[23] = target: Acetylcholinesterase (Electrophorus electricus, UniProt O42275); assay: Inhibition of Electrophorus electricus AChE pre-incubated for 10 mins before addition of acetylthiocholine iodide substrate and further incubated for 15 mins by Ellman's method
Sequence of Acetylcholinesterase (Electrophorus electricus, UniProt O42275) (O42275 whole entry): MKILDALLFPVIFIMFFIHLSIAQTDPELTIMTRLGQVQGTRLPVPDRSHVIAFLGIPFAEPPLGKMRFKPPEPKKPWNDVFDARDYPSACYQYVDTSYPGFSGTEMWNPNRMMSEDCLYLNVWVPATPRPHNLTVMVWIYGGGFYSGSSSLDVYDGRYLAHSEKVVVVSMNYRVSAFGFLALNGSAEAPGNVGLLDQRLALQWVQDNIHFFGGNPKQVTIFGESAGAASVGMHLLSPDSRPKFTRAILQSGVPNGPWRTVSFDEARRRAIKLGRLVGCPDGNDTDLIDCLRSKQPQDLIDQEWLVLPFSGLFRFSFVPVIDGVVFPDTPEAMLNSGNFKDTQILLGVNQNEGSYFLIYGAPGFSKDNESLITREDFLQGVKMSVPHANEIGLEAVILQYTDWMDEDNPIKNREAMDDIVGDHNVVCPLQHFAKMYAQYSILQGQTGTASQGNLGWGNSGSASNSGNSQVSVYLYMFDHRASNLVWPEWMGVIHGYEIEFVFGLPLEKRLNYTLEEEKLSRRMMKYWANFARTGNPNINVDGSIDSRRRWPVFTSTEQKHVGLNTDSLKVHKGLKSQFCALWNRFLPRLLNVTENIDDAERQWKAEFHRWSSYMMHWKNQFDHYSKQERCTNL

[24] = Effective permeability at 100 uM after 3 to 6 hrs by PAMPA assay; format: ADME; conditions: time 3-6 hrs, read-out: Peff
[25] = target: Cholinesterase (Equus caballus, UniProt P81908)
Sequence of Cholinesterase (Equus caballus, UniProt P81908) (P81908 whole entry): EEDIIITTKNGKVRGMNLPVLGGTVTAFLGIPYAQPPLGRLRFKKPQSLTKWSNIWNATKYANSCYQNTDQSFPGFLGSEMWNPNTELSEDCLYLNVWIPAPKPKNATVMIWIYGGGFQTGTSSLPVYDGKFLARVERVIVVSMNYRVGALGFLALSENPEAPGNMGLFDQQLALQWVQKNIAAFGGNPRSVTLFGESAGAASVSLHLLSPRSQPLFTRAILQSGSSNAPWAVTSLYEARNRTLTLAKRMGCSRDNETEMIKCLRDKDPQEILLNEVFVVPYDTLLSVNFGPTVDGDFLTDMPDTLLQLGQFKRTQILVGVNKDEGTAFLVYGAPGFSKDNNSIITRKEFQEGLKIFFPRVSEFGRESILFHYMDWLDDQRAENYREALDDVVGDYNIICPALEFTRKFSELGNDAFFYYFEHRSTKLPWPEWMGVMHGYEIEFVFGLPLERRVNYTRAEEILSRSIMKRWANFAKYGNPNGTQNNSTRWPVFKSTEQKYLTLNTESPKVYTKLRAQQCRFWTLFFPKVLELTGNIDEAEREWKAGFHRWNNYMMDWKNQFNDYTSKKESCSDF
Description: Inhibition of horse serum BuChE pre-incubated for 10 mins before addition of butyrylthiocholine iodide substrate and further incubated for 15 mins by Ellman's method

[26] = target: T2, Cholinesterase (Homo sapiens, UniProt P06276); assay: Inhibition of BuChE in human erythrocyte hemo-lyzates pre-incubated for 5 mins before addition of butyrylthiocholine iodide substrate by Ellman's method; format: tissue-based
T2 sequence (P06276 whole entry): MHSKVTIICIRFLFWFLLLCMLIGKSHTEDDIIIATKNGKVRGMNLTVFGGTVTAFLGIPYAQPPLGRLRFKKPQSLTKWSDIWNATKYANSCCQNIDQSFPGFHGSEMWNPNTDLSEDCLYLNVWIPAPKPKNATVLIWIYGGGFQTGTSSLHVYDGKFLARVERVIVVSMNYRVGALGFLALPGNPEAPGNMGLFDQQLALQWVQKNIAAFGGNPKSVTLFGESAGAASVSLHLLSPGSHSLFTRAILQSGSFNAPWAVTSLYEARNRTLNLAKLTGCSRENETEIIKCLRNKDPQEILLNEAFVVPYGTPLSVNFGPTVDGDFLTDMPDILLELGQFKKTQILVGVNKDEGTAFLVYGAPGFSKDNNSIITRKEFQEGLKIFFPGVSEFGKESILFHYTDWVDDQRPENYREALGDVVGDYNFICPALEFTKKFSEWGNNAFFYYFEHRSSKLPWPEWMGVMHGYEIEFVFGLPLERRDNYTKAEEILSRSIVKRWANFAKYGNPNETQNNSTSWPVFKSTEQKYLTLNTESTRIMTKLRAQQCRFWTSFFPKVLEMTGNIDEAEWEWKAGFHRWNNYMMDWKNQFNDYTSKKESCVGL

[27] = target: T3, Acetylcholinesterase (Homo sapiens, UniProt P22303); assay: Inhibition of AChE in human erythrocyte hemo-lyzates pre-incubated for 5 mins before addition of acetylthiocholine iodide substrate by Ellman's method; format: tissue-based
T3 sequence (P22303 whole entry): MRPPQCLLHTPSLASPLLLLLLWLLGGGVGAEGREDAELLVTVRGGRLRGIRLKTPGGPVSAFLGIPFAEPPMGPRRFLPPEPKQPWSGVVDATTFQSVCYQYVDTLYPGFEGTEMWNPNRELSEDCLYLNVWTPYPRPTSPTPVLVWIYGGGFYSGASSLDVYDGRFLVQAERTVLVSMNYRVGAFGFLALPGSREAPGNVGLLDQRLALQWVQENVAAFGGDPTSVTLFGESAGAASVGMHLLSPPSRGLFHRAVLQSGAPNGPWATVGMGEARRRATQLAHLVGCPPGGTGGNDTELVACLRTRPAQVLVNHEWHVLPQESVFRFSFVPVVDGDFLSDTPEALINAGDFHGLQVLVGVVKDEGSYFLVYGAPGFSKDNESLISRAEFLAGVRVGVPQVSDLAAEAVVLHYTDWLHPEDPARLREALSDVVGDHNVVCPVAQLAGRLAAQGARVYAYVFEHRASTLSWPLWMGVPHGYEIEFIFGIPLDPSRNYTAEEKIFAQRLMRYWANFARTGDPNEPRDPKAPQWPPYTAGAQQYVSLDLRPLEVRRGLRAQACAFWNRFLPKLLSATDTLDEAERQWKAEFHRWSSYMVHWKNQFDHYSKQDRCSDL

[28] = target: Acetylcholinesterase (Electrophorus electricus) (UniProt O42275); assay: Potency index, ratio of IC50 for tacrine to IC50 for test compound for inhibition of Electrophorus electricus AChE
Sequence of Acetylcholinesterase (Electrophorus electricus) (O42275 24-633 limits assumed): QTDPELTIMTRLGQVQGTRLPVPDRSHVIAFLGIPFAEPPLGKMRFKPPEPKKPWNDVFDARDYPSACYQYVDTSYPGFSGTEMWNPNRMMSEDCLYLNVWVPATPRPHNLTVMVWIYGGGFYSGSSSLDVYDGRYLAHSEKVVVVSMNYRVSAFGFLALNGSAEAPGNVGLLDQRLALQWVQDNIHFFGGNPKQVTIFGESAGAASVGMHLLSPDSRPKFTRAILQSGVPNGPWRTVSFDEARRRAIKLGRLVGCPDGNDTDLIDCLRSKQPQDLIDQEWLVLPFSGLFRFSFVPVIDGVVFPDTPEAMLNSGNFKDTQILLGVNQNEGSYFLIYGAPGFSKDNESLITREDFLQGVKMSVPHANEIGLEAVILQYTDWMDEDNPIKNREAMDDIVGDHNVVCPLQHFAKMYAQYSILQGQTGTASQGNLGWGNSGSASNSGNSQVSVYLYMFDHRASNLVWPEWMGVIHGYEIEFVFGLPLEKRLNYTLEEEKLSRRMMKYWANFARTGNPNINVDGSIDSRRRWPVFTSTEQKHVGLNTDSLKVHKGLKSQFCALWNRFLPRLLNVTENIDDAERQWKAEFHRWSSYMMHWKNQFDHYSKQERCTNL

[29] = target: Cholinesterase (Equus caballus) (UniProt P81908); assay: Potency index, ratio of IC50 for tacrine to IC50 for test compound for inhibition of horse serum BuChE
Sequence of Cholinesterase (Equus caballus) (P81908 whole entry): as the sequence (P81908 whole entry) above

[30] = Ratio of antioxidant activity of melatonin to antioxidant activity of test compound assessed as AAPH radical scavenging activity incubated for 15 mins by ORAC-FL method relative to Trolox; format: functional
[31] = Ratio of antioxidant activity of FA to antioxidant activity of test compound assessed as AAPH radical scavenging activity incubated for 15 mins by ORAC-FL method relative to Trolox; format: functional
[32] = target: T2, Cholinesterase; assay: Competitive type inhibition of BuChE in human erythrocyte hemo-lyzates using […] substrate by Ellman's method based Lineweaver-Burk plot analysis; format: tissue-based
[33] = target: T3, Acetylcholinesterase; assay: Mixed type inhibition of AChE in human erythrocyte hemo-lyzates using acetylthiocholine iodide substrate by Ellman's method based Lineweaver-Burk plot analysis; format: tissue-based
[34] = Ratio of antioxidant activity of LA to antioxidant activity of test compound assessed as AAPH radical scavenging activity incubated for 15 mins by ORAC-FL method relative to Trolox; format: functional
[35] = Antioxidant activity assessed as decrease in peak intensity of hydroxyl radicals at 100 uM by N-oxide self-spin assay relative to control; format: functional; set-up: scale not given: the % may be the effect or the level left
[36] = target: T2, Cholinesterase; assay: Potency index, ratio of IC50 for tacrine to IC50 for test compound for inhibition of BuChE in human erythrocyte hemo-lyzates pre-incubated for 5 mins before addition of butyrylthiocholine iodide substrate by Ellman's method; format: tissue-based
[37] = target: T3, Acetylcholinesterase; assay: Potency index, ratio of IC50 for tacrine to IC50 for test compound for inhibition of AChE in human erythrocyte hemo-lyzates pre-incubated for 5 mins before addition of acetylthiocholine iodide substrate by Ellman's method; format: tissue-based

Structure (SMILES)	viability at 300 µM [1] [%]	Activity [2]	Activity [4] [%]	Activity [5]	Activity [7]	Activity [8] [%]	Activity [9]	viability at 1000 µM [10] [%]	Activity [14]	Activity [16] [%]	Activity [17] [%]	viability at 100 µM [18] [%]	Activity [19] [%]	IC50 [23] [nM]	Papp at 100 µM [24] [×10⁻⁶ cm/s]	IC50 [25] [nM]	CD ([15]; MCF7, filed as activator) [µM]	IC50 [26] [nM]	IC50 [27] [nM]	other results
COc1ccc2[nH]cc(CCNC(C)=O)c2c1 [MELATONIN]	71.8	Active	50.1	15.3%	60.7%	35.5	60.2%	72.3	Active	47.4	39.4	91.4	59.1							Activity [3]: inactive; Activity [6]: inactive; Activity [11]: 81.4%; Activity [12]: 55.4%; Activity [13]: 66.6%; CD ([15]; MCF7): > 60 µM; Activity [20]: inactive; Activity [21]: 33%; Activity [22]: inactive
COc1ccc2nc3c(c(NCCCCCCCCN(CC(=O)NCCc4c[nH]c5ccc(OC)cc45)C(=O)/C=C/c4ccc(O)c(OC)c4)c2c1)CCCC3	56	Active	59.6	78.9%	inactive	56.3	35.1%	54.4	Active	35.9	28	61	48	29.7	1.8	12	5.99	336	> 10000	
COc1ccc2nc3c(c(NCCCCCCCN(CC(=O)NCCc4c[nH]c5ccc(OC)cc45)C(=O)CCCC[C@@H]4CCSS4)c2c1)CCCC3	57.7							48.9				62.8		7.56		5.38		2650	> 10000	
COc1ccc2[nH]cc(CCNC(=O)CN(CCCCCCCCNc3c4c(nc5ccccc35)CCCC4)C(=O)CCCC[C@@H]3CCSS3)c2c1	58.9							48.8				86.2		3.62	6.9	1.25		211	180	Ratio IC50 [28]: 12.2; Ratio IC50 [29]: 4
COc1ccc2nc3c(c(NCCCCCCN(CC(=O)NCCc4c[nH]c5ccc(OC)cc45)C(=O)CCCC[C@@H]4CCSS4)c2c1)CCCC3	46.4							44.8				68.7		16		3.92		1880	> 10000	
COc1ccc2nc3c(c(NCCCCCCCN(CC(=O)NCCc4c[nH]c5ccc(OC)cc45)C(=O)/C=C/c4ccc(O)c(OC)c4)c2c1)CCCC3	69.9	Active	33.7	57.4%	30.9%	70.6	56.7%	68.7	Active	37.6	81.4	84.7	41.7	8.37	4.2	2.91	6.31	234	1290	Ratio [30]: 3.96; Ratio [31]: 2.43; inhibition [32]: Active; inhibition [33]: Active; Ratio [34]: 38
CC(=O)SCCC(=O)NCCCCCCNc1c2c(nc3cc(Cl)ccc13)CCCC2																				Activity [35]: 80.3%
COc1ccc2[nH]cc(CCNC(=O)CN(CCCCCCCCNc3c4c(nc5ccccc35)CCCC4)C(=O)/C=C/c3ccc(O)c(OC)c3)c2c1	51.3		44.8	5.3%	51.3%	21.5	66.3%	49.7		35.4	34.5	53.3	59.4	13.9	5.8	2.26	15.7	23.5	43.7	Ratio IC50 [36]: 6.91; inhibition [32]: Active; inhibition [33]: Active; Ratio IC50 [37]: 6.91
COc1ccc2nc3c(c(NCCCCCCN(CC(=O)NCCc4c[nH]c5ccc(OC)cc45)C(=O)/C=C/c4ccc(O)c(OC)c4)c2c1)CCCC3	67.6		39.2	50.2%	42.8%	12	inactive	56.5		22.9	85.1	70.3	29.2	17.8	2.2	2.97	10.9	358	> 10000	
COC(=O)/C=C/c1ccc(O)c(OC)c1			23.8	inactive	56.9%	27.8	53.9%			51.1	40.7		21.3							
COc1ccc2nc3c(c(NCCCCCCCCN(CC(=O)NCCc4c[nH]c5ccc(OC)cc45)C(=O)CCCC[C@@H]4CCSS4)c2c1)CCCC3	77.8							44.9				86.2		14.8		8.22		1730	> 10000	
CC(C)(C)c1cc(O)ccc1O		Active							Active								1.68			
